Data as given in patent US10786475B2, “Method for preventing, treating, or improving fatty liver by administering effective amounts of azelaic acid to a subject” (Korea University Research and Business Foundation, priority 2018, dated 2020).

Key:
mice fed a high-fat diet = assay: Comparison of AzA-added and barley-added high-fat diets in mice; assay type: in vivo, mouse; conditions: 6 weeks
Experimental: A diet, in which an AzA (0.5 g/kg diet) or 10% (w/w) barley was added to a high-fat diet, was administered to mice for 6 weeks.

[1] = system: Hepa1c1c-7 cells stimulated by LPS; assay: IL-6 and TNF-α gene expression (qPCR) in LPS-treated Hepa1c1c-7 cells; assay type: cell-based, mouse; conditions: compared with control group
Experimental: 1 μg of RNA extracted from Hepa1c1c-7 hepatocytes was used to synthesize cDNA by using a ReverTra Ace® qPCR RT kit (TOYOBO, Osaka, Japan). More particularly, to increase the efficiency of an RT-PCR reaction, the extracted RNA was treated at 65° C. for 5 minutes, and immediately stored on ice. Afterward, a total of 8 μL of a reaction mixture was prepared with 2 μL of a 4×DNA Master Mix containing a gDNA remover, 0.5 μg of RNA and distilled water (nuclease-free water), and reacted at 37° C. for 5 minutes. And then, a 5×RT Master mix was added to the reaction mixture, reacted at 37° C.-5 min, 50° C.-5 min and 98° C.-5 min to synthesize cDNA.
PCR was performed with the cDNA synthesized by the above-described method using a THUNDERBIRD SYBR qPCR Mix (TOYOBO, Osaka, Japan) and an iQ5 iCycler system (Bio-Rad, California, USA). More particularly, amplification was performed with initial denaturation at 95° C. for 4.5 minutes, and 40 cycles of additional denaturation at the same temperature for 10 seconds, annealing and cooling at 55 to 60° C. for 30 seconds, and elongation at 68° C. for 20 seconds. The expression level of each gene was normalized using GAPDH expression. Primers were designed using the Nucleotide BLAST Software of the National Center for Biotechnology Information (NCBI), and purchased from Bionics (Seoul, Korea).

[2] = system: mouse primary hepatocytes; assay: Fatty acid decomposition gene markers in mouse primary hepatocyte; assay type: cell-based
Experimental: To reconfirm the liver tissue lipolytic effect of an AzA, an additional experiment was performed using a mouse primary hepatocyte. […] Therefore, it was reconfirmed that an AzA stimulates fatty acid oxidation, thereby treating/preventing a fatty liver lesion.

Olfr544 KO mouse = assay: Fatty liver inhibitory effect in high-fat diet Olfr544 KO mouse; assay type: in vivo
Experimental: Mice used in the example, which were an eight-week-old C57BL/6J model, were purchased from Samtako, and Olfr544 KO mice were manufactured by Macrogen based on the C57BL/6J model using a CRISPR/Cas9 system. All experiments performed in the example are compliant to a protocol approved by the Animal Experiment Ethics Committee at Korea University (Protocol No. KUIACUC-20170322-1). The mice were acclimated at 21 to 25° C. under a 50 to 60% relative humidity condition for 12 hours before being used in the experiments, and a total of 18 mice were treated with an AzA diluted with distilled water at 50 mg/kg of body weight and distilled water as a control through oral administration for 6 weeks. The mice used in the experiments were fed a high-fat diet containing 60% fat (D12492, Research Diets, Inc) to induce fatty liver, and then a body weight was measured every week. […] An oxygen consumption amount (VO2) and a carbon dioxide production amount (VCO2) were analyzed using an Oxylet Physiocage System (Panlab/Harvard apparatus, Cornella, Spain) and suiteMETABOLISM (V2.2.01, Panlab) software. A respiratory quotient (RQ) was calculated using the formula VCO2/VO2, and energy expenditure was analyzed using the formula EE=VO2×1.11×(3.815+1.232×RQ). The oxidation of a free fatty acid was calculated using the formula (1.6946×VO2)−(1.7012×VCO2). An AzA (100 mg/kg) was intraperitoneally administered, and then concentration of a glycerol, which is a body fat decomposition marker, was measured. […] To measure glucose resistance and insulin resistance, a glucose and insulin resistance test was performed under a condition, in which glucose ([…]) and insulin (0.35 unit/kg/bw) are administered to a mouse.

[3] = system: Hepa1c1c-7 cells stimulated by LPS; assay: IL-6 and TNF-α cytokine concentration (ELISA) in LPS-treated Hepa1c1c-7 cells; assay type: cell-based, mouse; conditions: 50 μM AzA pretreatment 1 hour, 100 ng/mL LPS 6 hours
Experimental: Hepa1c1c-7 cells were cultured in a 12-well plate for 24 hours. Subsequently, the cells were pretreated with 50 μM of AzA for 1 hour, and treated with 100 ng/mL LPS for 6 hours with the AzA present. The Hepa1c1c-7 cells were lysed in a cell lysis buffer (50 mM Tris, 1% Triton-X 100, 1 mM EDTA, proteinase inhibitor), centrifuged at 13,000 rpm and 4° C. for 20 minutes, thereby obtaining a supernatant, and then the supernatant was analyzed using a Mouse IL6 ELISA kit and a Mouse TNFα ELISA kit (Thermo Scientific, IL, USA). Tumor necrosis factor-alpha (TNF-α) and interleukin-6 (IL-6) were quantified using ELISA known to those of ordinary skill in the art.

Hepa1c1c-7 cells = assay: Fatty acid oxidation rate ([1-14C]palmitate) in Hepa1c1c-7 cells; assay type: cell-based, mouse; conditions: 100 μM AzA, 24 hours, compared with control group
Experimental: Hepa1c1c-7 cells were seeded on a 24-well plate at 5×10^5 cells/mL, cultured for 24 hours, treated with 100 μM of AzA, and then incubated for 24 hours. Afterward, [1-^14C]palmitate was accumulated, the cells were cultured for one hour, and the medium was collected to extract CO2 using NaOH and HCl, followed by measuring ^14CO2 using a liquid scintillation counter. As a positive control, GW7647 (1 μM) was used.

[4] = AzA (0.5 g/kg diet) added to high-fat diet
[5] = AzA (0.5 g/kg diet) or 10% (w/w) barley added to high-fat diet, between groups
[6] = Olfr544 KO mouse, HFD and AzA for 6 weeks

## O=C(O)CCCCCCCC(=O)O [AzA, nonanedioic acid]
Mice fed a high-fat diet; [4]
  ALT concentration (hepatotoxicity marker): decreased
  LDL cholesterol concentration: significantly decreased
  triglyceride concentration in liver tissue (fatty liver lesion marker): significantly decreased
Mice fed a high-fat diet; [5]
  HDL cholesterol concentration: no differences
  fasting blood glucose concentration: no differences
  total cholesterol concentration: no differences
  triglyceride concentration (blood): no differences
Mice fed a high-fat diet; AzA (0.5 g/kg diet) or 10% (w/w) barley added to high-fat diet, versus high-fat diet group
  body weight: significantly decreased
[1]
  IL-6 gene expression: significantly decreased
  TNF-α gene expression: significantly decreased
[2]
  Acox1 gene marker: significantly increases
  Cpt1a gene marker: significantly increases
  Ppara gene marker: significantly increases
Olfr544 KO mouse; KO mouse
  glucose resistance (glucose resistance test): not observed
  insulin resistance (insulin resistance test): not observed
Olfr544 KO mouse; KO mouse, AzA 50 mg/kg/day
  abdominal fat (microCT): no such effects
  total fat amount (microCT): no such effects
Olfr544 KO mouse; KO mouse, AzA 100 mg/kg intraperitoneally
  blood glycerol concentration (body fat decomposition marker): no effect
Olfr544 KO mouse; [6]
  oxidation of free fatty acids (indirect calorimetric analysis): these effects were not shown
  respiratory quotient (indirect calorimetric analysis): these effects were not shown
[3]
  expression level of the IL-6 protein: tendency of decrease
Hepa1c1c-7 cells
  fatty acid oxidation rate: significantly increased
